Experimental data reported in patent publication US11357749B2, “Methods for treating neutropenia” (Enzychem Lifesciences Corporation, priority 2014, dated 2022).

Key:
neutrophils = assay: Chemotherapy-induced neutropenia mouse model (neutrophil count, survival); type: in vivo, mice
Protocol: (§1) The effect of PLAG for treatment of neutropenia and thrombocytopenia induced by chemotherapy (CIN) is evaluated in an animal model. Anti-cancer agents (Gemcitabine 50 mg/kg, Cyclosphosphamide 100 mg/kg, or Tamoxifen 50 mg/kg) are dosed daily for 3 weeks; PLAG is also administered 50 mg/kg daily for 3 weeks. After three weeks, neutrophils are harvested and counted with Auto Hematology Analyzer BC-5300.

Complement 3 = Complement 3 activation by chemotherapeutic agents in mouse model; type: in vivo; settings: mice, Gemcitabine, Cyclophosphamide or Tamoxifen plus PLAG
Protocol: as §1
It is believed that the neutropenia and thrombocytopenia of these agents and other chemotherapeutic agents may be due at least in part to a specific complement-mediated toxicity. This is seen in FIG. 6.

platelets [1] = assay: Tamoxifen-induced platelet reduction in mice; type: in vivo; settings: Tam 100 mg/kg + PLAG 5 mg/kg, after 15 hours
Protocol: Mice are injected with 100 mg/kg phenylhydrazine (PHZ), i.p., to induce anemia and reduction of platelets. 5 mg/kg PLAG is administered to the mice orally and blood samples are taken at 3 and 13 days after. In addition, for comparison, normal mice which are not treated with phenylhydrazine are prepared as a normal group, and mice treated with PHZ and olive oil instead of PLAG are prepared as a control group. The blood samples taken from the mice are treated with 0.5 ml EDTA (Minicollect tube, Greiner bio-one, Austria) and concentration of platelet is measured using automated blood sample analyzer BC-6800 (Mindray, Shenzhen, China) by number of platelet per […] (k: 1,000).
The experiment is repeated using Tamoxifen (Tam), an anticancer agent, injected at the amount of 100 mg/kg, or lipopolysaccharide (LPS), an inflammation inducer, at the amount of 1 mg/kg to induce platelet reduction. Platelet concentration is measured 15 hours after PLAG treatment. For comparison, olive oil and PBS are used instead of PLAG as controls, respectively for the Tamoxifen and lipopolysaccharide experiment.

platelets [2] = assay: Pilot study in pancreatic cancer patients receiving chemotherapy: platelets; type: in vivo, human; settings: 16 patients, Gemcitabine and Erlotinib, PLAG 1,000 mg once per day orally, two cycles
Protocol: PLAG is administered to sixteen pancreatic cancer patients after chemotherapy. The subjects of this study are unoperable pancreatic cancer patients with ECOG (Eastern Cooperative Oncology Group) performance status of “0” or “1”, i.e. patients in good physical condition without much pain, able to enjoy almost normal lifestyle and thus, eligible for anticancer treatment for at least 2 months. The pancreatic cancer patients are “locally advanced” patients having tumor metastasis to the major vessels around pancreas or “Distant metastasis” patients with distant metastasis to liver, lung, bone, etc. ECOG performance status “0” refers to a patient who is asymptomatic, fully active, able to carry on all predisease activities without restriction with no pain and no problem for normal lifestyle, while “1” refers to a patient who is symptomatic but completely ambulatory with mile pain and a little problem for normal life. Anticancer (Gemcitabine and Erlotinib combo treatment) Regimen is as follows: 1,000 mg of Gemcitabine is injected once a week for three weeks (Day 1, Day 8, Day 15), and is not injected in the next one week (Day 22). Therefore, 1 cycle of anticancer treatment requires 1 month. 100 mg of Erlotinib (Tarceva) is administered once per day everyday orally. 1,000 mg of PLAG is also administered once per day orally, starting from 3 days before anticancer treatment until the last chemotherapy treatment. The PLAG treatment group and control group both completed two cycles of anticancer treatment. There is no difference among the control and PALG treatment groups in the amount or schedule of anticancer treatment.

sepsis = sepsis animal model, cecal-ligation-puncture; stated as known; cited from earlier work

CCCCC/C=C\C/C=C\CCCCCCCC(=O)OC(COC(C)=O)COC(=O)CCCCCCCCCCCCCCC (racemic) [PLAG, 1-palmitoyl-2-linoleoyl-3-acetylglycerol]
reduced neutrophil count following chemotherapy (neutrophils; Gemcitabine 50 mg/kg, Cyclosphosphamide 100 mg/kg or Tamoxifen 50 mg/kg daily, PLAG 50 mg/kg daily, 3 weeks): prevented | survival rate (neutrophils; PLAG with Gemcitabine vs Gemcitabine alone): improved survival rate | activities and survival rate (neutrophils; Tamoxifen 50 mg/kg co-treated with PLAG vs Tamoxifen only): faster improvement of activities and survival rate | neutrophil score (neutrophils; mice treated with PLAG 50 mg/kg and Gemcitabine 50 mg/kg daily, 3 weeks): improved significantly | neutrophil count (neutrophils; mice treated with PLAG 50 mg/kg and cyclophosphamide 100 mg/kg daily, 3 weeks, vs control group): improved significantly | Complement 3 activation by chemotherapeutic agents (Complement 3): largely blocked | Platelet Conc. (platelets [1]): 780.7 ± 195.9 k/ul | patients whose platelet number dropped to less than 25,000 (platelets [2]): no patient | patients with >50% decrease in platelet count (platelets [2]): 43.8% | patients with >60% decrease in platelet count (platelets [2]): 25% | patients with >70% decrease in platelet count (platelets [2]): none | patients with anticancer treatment postponed or dose adjusted due to platelet number decrease to less than 50,000 (platelets [2]): no patient | survivability ratio of animals (sepsis): increases survivability ratio
